Laboratory results as given in patent US20250204532A1, “Treatment Liquid for Cleaning an Implant Part” (Zyfoma GmbH, priority 2013, published 2025).

Tested on: biofilm
Experiment: electrolytic cleaning of biofilm-contaminated implant surface (laboratory test)
Conditions: implants greatly covered and contaminated with a biofilm, on which tartar has also developed; relatively low dosages
Text: For detaching the bacteria or germs, respectively their residues or fragments, from the surface, it is provided to wet the latter with a conductive treatment liquid, charging it with current, possibly in the form of pulsed current impulses. […] Here, e.g. oil and/or chlorhexidine can be used. Furthermore, ionic liquids, which preferably contain I^−, Cl^− and/or OH^− ions, can also be used.

CC(=O)O [ethanoic acid]
cleaning success: good cleaning success
